From US10457707B2, “Substituted urea depsipeptide analogs as activators of the CLPP endopeptidase” (priority 2015, dated 2019)
In brackets after ≈: the same amount, converted by molar mass. Read-outs that look alike come from different tables or passages of the source. *1 amine or outer side, *2 acyl side, *3 side chain or, on linkers, in order; H or OH if unused. Where a SMILES comes first, the peptide text is derived from it. Bridges are numbered along the chain shown (N, C = ends). [ ]: non-standard residue; d: D form. The star is where a group is joined. ξ: configuration not given here. NH(1,3-benzodioxol-5-yl) = c1cc2c(cc1N*)OCO2; Phe(3,5-F2) = N[C@@H](Cc1cc(F)cc(F)c1)C(=O)O; NH(4-OCF3-phenyl) = FC(F)(F)Oc1ccc(N*)cc1; Pro(4S-Me) = C[C@@H]1CN[C@H](C(=O)O)C1; Pro(4R-Me) = C[C@H]1CN[C@H](C(=O)O)C1; ξPro(4S-Me) = C[C@@H]1CNC(C(=O)O)C1; ξPro(4R-Me) = C[C@H]1CNC(C(=O)O)C1; Hyp = O=C(O)[C@@H]1C[C@@H](O)CN1; NH(4-Me-phenyl) = Cc1ccc(N*)cc1; aThr = C[C@H](O)[C@H](N)C(=O)O; X5 = O=C(C1COCCN1[*:1])[*:2]; X12 = c1nc2ccc(N*)cc2[nH]1; Pip = O=C(O)[C@@H]1CCCCN1; NMeA = CN[C@@H](C)C(=O)O; CO = O=C([*:1])[*:2]; ξP = O=C(O)C1CCCN1

What was measured:
Type in all cases: cell-based
[1] = system: Staphylococcus aureus, USA 300 wherein ClpP is inactivated; test: Minimal inhibitory concentration assay
Protocol: (§1) It is understood, that in various aspects, the MIC is determined by a microbroth dilution method. In a further aspect, the MIC is determined by a microbroth dilution method using Staphylococcus aureus, ATCC 29213. In a still further aspect, the MIC is determined by a microbroth dilution method using Staphylococcus aureus, NRS70. In a yet further aspect, the MIC is determined by a microbroth dilution method using Streptococcus pyogenes, ATCC 700294. In an even further aspect, the MIC is determined by a microbroth dilution method using Streptococcus pneumoniae, DAW27. In a still further aspect, the MIC is determined by a microbroth dilution method using Bacillus subtilis, ATCC 23857. In a yet further aspect, the MIC is determined by a microbroth dilution method using Enterococcus faecalis, ATCC 33186. In an even further aspect, the MIC is determined using Staphylococcus aureus, USA 300. In a still further aspect, the MIC is determined using Streptococcus pneumoniae, R6. In a further aspect, the MIC is determined using Staphylococcus aureus, USA 300 and compared to the MIC determined using Staphylococcus aureus, USA 300 wherein ClpP is inactivated, thus allowing confirmation that killing is via a ClpP-dependent pathway.
(§2) Minimal inhibitory concentrations (“MICs”) were determined using the microbroth dilution method according to Clinical Laboratory Standards Institute (CLSI; National, C.F. C. L. S., Methods for Dilution Antimicrobial Susceptibility Tests for Bacteria Grow aerobically-Seventh Edition: Approved Standard M7-A7, CLSI, Wayne, Pa., USA, 2008) and were read by visual inspection. Two fold serial dilutions of test compound in 100 μL of the appropriate broth media were first prepared in 96-well round bottom microtiter plates (Nalgene Nunc International, Rochester, N.Y., USA). An equivalent volume (100 μL) of bacterial broth inocula containing approximately 10^5 bacterial cfu/mL was added to each well to give final concentrations of test compound starting at 200 μM. The plates were then incubated aerobically at 37° C. All strains were incubated overnight. After incubations, in all cases the MIC was recorded as the lowest concentration of drug that prevented bacterial growth. The bacterial strains for which MIC was determined as described in Table 4.

[2] = system: Staphylococcus aureus, USA 300; test: Minimal inhibitory concentration assay; conditions: USA300, read-out: Minimal Inhibitory Concentrations S. aureus USA 300
Protocol: as §1, §2

[3] = system: Bacillus subtilis, ATCC 23857; test: Minimal inhibitory concentration assay (microbroth dilution)
Protocol: as §1, §2

[4] = system: Staphylococcus aureus, NRS70; test: as above
Protocol: as §1, §2

[5] = system: Staphylococcus aureus, ATCC 29213; test: as above; conditions: ATCC29213, read-out: Minimal Inhibitory Concentrations S. aureus ATCC 29213
Protocol: as §1, §2

[6] = system: Enterococcus faecalis, ATCC 33186; test: as above
Protocol: as §1, §2

[7] = system: Streptococcus pyogenes, ATCC 700294; test: as above
Protocol: as §1
Minimal inhibitory concentrations (“MICs”) were determined using the microbroth dilution method according to Clinical Laboratory Standards Institute (CLSI; National, C.F. C. L. S., Methods for Dilution Antimicrobial Susceptibility Tests for Bacteria Grow aerobically-Seventh Edition: Approved Standard M7-A7, CLSI, Wayne, Pa., USA, 2008) and were read by visual inspection. Two fold serial dilutions of test compound in 100 μL of the appropriate broth media were first prepared in 96-well round bottom microtiter plates (Nalgene Nunc International, Rochester, N.Y., USA). […] The plates were then incubated aerobically at 37° C. All strains were incubated overnight. After incubations, in all cases the MIC was recorded as the lowest concentration of drug that prevented bacterial growth. The bacterial strains for which MIC was determined as described in Table 4.

[8] = system: Streptococcus pneumoniae, R6; test: Minimal inhibitory concentration assay; conditions: read-out: Minimal Inhibitory Concentrations S. pneumoniae R6
Protocol: It is understood, that in various aspects, the MIC is determined by a microbroth dilution method. […] In a still further aspect, the MIC is determined by a microbroth dilution method using Staphylococcus aureus, NRS70. […] In an even further aspect, the MIC is determined by a microbroth dilution method using Streptococcus pneumoniae, DAW27. […] In an even further aspect, the MIC is determined using Staphylococcus aureus, USA 300. In a still further aspect, the MIC is determined using Streptococcus pneumoniae, R6. In a further aspect, the MIC is determined using Staphylococcus aureus, USA 300 and compared to the MIC determined using Staphylococcus aureus, USA 300 wherein ClpP is inactivated, thus allowing confirmation that killing is via a ClpP-dependent pathway.
Two fold serial dilutions of test compound in 100 μL of the appropriate broth media were first prepared in 96-well round bottom microtiter plates (Nalgene Nunc International, Rochester, N.Y., USA). […] The plates were then incubated aerobically at 37° C. All strains were incubated overnight. After incubations, in all cases the MIC was recorded as the lowest concentration of drug that prevented bacterial growth. The bacterial strains for which MIC was determined as described in Table 4.

[9] = Bacillus subtilis, ATCC23857; read-out: Minimal Inhibitory Concentrations B. subtilis ATCC 23857
[10] = Staphylococcus aureus, NRS70; read-out: Minimal Inhibitory Concentrations S. aureus NRS70
[11] = Enterococcus faecalis, ATCC33186; read-out: Minimal Inhibitory Concentrations E. faecalis ATCC 33186
[12] = Streptococcus pyogenes, ATCC700294; read-out: Minimal Inhibitory Concentrations S. pyogenes ATCC 700294
[13] = Bacillus subtilis, ATCC23857, read-out: Minimal Inhibitory Concentrations B. subtilis ATCC 23857
[14] = Staphylococcus aureus, NRS70, read-out: Minimal Inhibitory Concentrations S. aureus NRS70
[15] = Streptococcus pyogenes, ATCC700294, read-out: Minimal Inhibitory Concentrations S. pyogenes ATCC 700294

Row | SMILES | Minimal Inhibitory Concentrations S. aureus USA 300 ΔClpP [1] [µM] | MIC [2] [µM] | MIC [3, 9] [µM] | MIC [4, 10] [µM] | MIC [5] [µM] | MIC [6, 11] [µM] | MIC [7, 12] [µM] | MIC [8] [µM] | MIC [3, 13] [µM] | MIC [4, 14] [µM] | MIC [7, 15] [µM] | MIC ([6]; Enterococcus faecalis, ATCC33186, read-out: Minimal Inhibitory Concentrations E. faecalis ATCC 33186) [µM]
1 | C[C@@H]1NC(=O)[C@@H]2CCCCN2C(=O)[C@@H]2CCCN2C(=O)[C@@H](NC(=O)[C@H](Cc2cc(F)cc(F)c2)NC(=O)Nc2ccc3c(c2)OCO3)[C@H](C)OC(=O)[C@@H]2CCCN2C1=O [Compound 17, (S)-2-(3-(benzo[d][1,3]dioxol-5-yl)ureido)-3-(3,5-difluorophenyl)-N-((6S,8aS,14aS,20S,21S,23aS)-6,21-dimethyl-5,8,14,19,23-pentaoxooctadecahydro-1H,5H,14H,19H-pyrido[2,1-i]dipyrrolo[2,1-c:2′,1′-l][1]oxa[4,7,10,13]tetraazacyclohexadecin-20-yl)propanamide] ({NH(1,3-benzodioxol-5-yl)-CO}-[Phe(3,5-F2)][aThr]P[Pip]AP; ester 2-C) | 200 | 3.1 (≈ 2.55 µg/mL) | 0.4 (≈ 0.33 µg/mL) | 3.1 (≈ 2.55 µg/mL) | 3.1 (≈ 2.55 µg/mL) | < 0.1 | 1.5 (≈ 1.24 µg/mL) | – | – | – | – | –
2 | C[C@H]1C[C@H]2C(=O)O[C@@H](C)[C@H](NC(=O)[C@H](Cc3cc(F)cc(F)c3)NC(=O)Nc3ccc4c(c3)OCO4)C(=O)N3CCC[C@H]3C(=O)N3CCCC[C@H]3C(=O)N[C@@H](C)C(=O)N2C1 [Compound 20, (S)-2-(3-(benzo[d][1,3]dioxol-5-yl)ureido)-3-(3,5-difluorophenyl)-N-((2R,6S,8aS,14aS,20S,21S,23aS)-2,6,21-trimethyl-5,8,14,19,23-pentaoxooctadecahydro-1H,5H,14H,19H-pyrido[2,1-i]dipyrrolo[2,1-c:2′,1′-l][1]oxa[4,7,10,13]tetraazacyclohexadecin-20-yl)propanamide] ({NH(1,3-benzodioxol-5-yl)-CO}-[Phe(3,5-F2)][aThr]P[Pip]A[Pro(4S-Me)]; ester 2-C) | 200 | 0.8 (≈ 0.67 µg/mL) | < 0.1 | 0.4 (≈ 0.335 µg/mL) | 0.8 (≈ 0.67 µg/mL) | < 0.1 | 0.4 (≈ 0.335 µg/mL) | – | – | – | – | –
3 | C[C@H]1CC2C(=O)O[C@@H](C)[C@H](NC(=O)[C@H](Cc3cc(F)cc(F)c3)NC(=O)Nc3ccc(OC(F)(F)F)cc3)C(=O)N3CCCC3C(=O)N(C)[C@@H](C)C(=O)N[C@@H](C)C(=O)N2C1 (stereo partly drawn) [Compound 28, (2S)-3-(3,5-difluorophenyl)-N-((2S,6S,9S,11aS,17S,18S)-2,6,9,10,18-pentamethyl-5,8,11,16,20-pentaoxohexadecahydro-1H,5H,16H-dipyrrolo[2,1-c:2′,1′-l][1]oxa[4,7,10,13]tetraazacyclohexadecin-17-yl)-2-(3-(4-(trifluoromethoxy)phenyl)ureido)propanamide] ({NH(4-OCF3-phenyl)-CO}-[Phe(3,5-F2)][aThr][ξP][NMeA]A[ξPro(4S-Me)]; ester 2-C) | – | 0.1 (≈ 0.0852 µg/mL) | 0.01 (≈ 0.00852 µg/mL) | 0.05 (≈ 0.0426 µg/mL) | 0.05 (≈ 0.0426 µg/mL) | – | 0.23 (≈ 0.196 µg/mL) | 0.029 (≈ 0.0247 µg/mL) | – | – | – | –
4 | Cc1ccc(NC(=O)N[C@@H](Cc2cc(F)cc(F)c2)C(=O)N[C@@H]2C(=O)N3CCCC3C(=O)N3CCOCC3C(=O)N[C@@H](C)C(=O)N3C[C@H](C)CC3C(=O)O[C@H]2C)cc1 (stereo partly drawn) [Compound 47, (S)-3-(3,5-difluorophenyl)-2-(3-(p-tolyl)ureido)-N-((6aS,12S,13S,15aS,17R,21S,23aS)-13,17,21-trimethyl-6,11,15,20,23-pentaoxooctadecahydro-6H,11H,15H-[1,4]oxazino[3,4-i]dipyrrolo[2,1-c:2′,1′-l][1]oxa[4,7,10,13]tetraazacyclohexadecin-12-yl)propanamide] ({NH(4-Me-phenyl)-CO}-[Phe(3,5-F2)][aThr][ξP][X5]A[ξPro(4R-Me)]; ester 2-C) | >200 | 0.01 (≈ 0.0081 µg/mL) | – | – | 0.003 (≈ 0.00243 µg/mL) | – | – | 0.002 (≈ 0.00162 µg/mL) | 0.8 (≈ 0.648 µg/mL) | 0.0002 (≈ 0.000162 µg/mL) | 0.02 (≈ 0.0162 µg/mL) | –
5 | Cc1ccc(NC(=O)N[C@@H](Cc2cc(F)cc(F)c2)C(=O)N[C@@H]2C(=O)N3C[C@H](O)C[C@H]3C(=O)N3CCCC[C@H]3C(=O)N[C@@H](C)C(=O)N3C[C@H](C)C[C@H]3C(=O)O[C@H]2C)cc1 [Compound 216, (S)-3-(3,5-difluorophenyl)-N-((2R,6S,8aS,14aS,16R,20S,21S,23aS)-16-hydroxy-2,6,21-trimethyl-5,8,14,19,23-pentaoxooctadecahydro-1H,5H,14H,19H-pyrido[2,1-i]dipyrrolo[2,1-c:2′,1′-l][1]oxa[4,7,10,13]tetraazacyclohexadecin-20-yl)-2-(3-(p-tolyl)ureido)propanamide] ({NH(4-Me-phenyl)-CO}-[Phe(3,5-F2)][aThr][Hyp][Pip]A[Pro(4R-Me)]; ester 2-C) | – | 0.1 (≈ 0.0824 µg/mL) | – | – | – | – | – | 0.001 (≈ 0.000824 µg/mL) | 0.2 (≈ 0.165 µg/mL) | 0.2 (≈ 0.165 µg/mL) | 0.2 (≈ 0.165 µg/mL) | –
6 | C[C@@H]1C[C@H]2C(=O)O[C@@H](C)[C@H](NC(=O)[C@H](Cc3cc(F)cc(F)c3)NC(=O)Nc3ccc4nc[nH]c4c3)C(=O)N3CCC[C@H]3C(=O)N3CCCC[C@H]3C(=O)N[C@@H](C)C(=O)N2C1 [Compound 303, (S)-2-(3-(1H-benzo[d]imidazol-6-yl)ureido)-3-(3,5-difluorophenyl)-N-((2R,6S,8aS,14aS,20S,21S,23aS)-2,6,21-trimethyl-5,8,14,19,23-pentaoxooctadecahydro-1H,5H,14H,19H-pyrido[2,1-i]dipyrrolo[2,1-c:2′,1′-l][1]oxa[4,7,10,13]tetraazacyclo-hexadecin-20-yl)propanamide] ({X12-CO}-[Phe(3,5-F2)][aThr]P[Pip]A[Pro(4R-Me)]; ester 2-C) | >20 | 15.1 (≈ 12.6 µg/mL) | – | – | 20 (≈ 16.7 µg/mL) | – | – | – | – | 10.1 (≈ 8.42 µg/mL) | – | 2.5 (≈ 2.08 µg/mL)
